The results in this text go back to patent publication US20230339970A1, “CASEIN KINASE 1 DELTA MODULATORS” (priority 2020, published 2023).

Bounds are passed on as bounds.

As a reminder, the IC50 is the point on the concentration scale where inhibition reaches its midpoint.

Test [1] concerns the target T1, human recombinant GST cleaved CSNK1D (Homo sapiens, UniProt P48730).
T1 construct: GST (cleaved yes); purchased University of Dundee clone DU 19064
The test can be described thus: Purified Enzyme Assay (ADP-Glo CSNK1D Kinase Assay). Particulars: 2 nM CSNK1D; peptide substrate 150 μM; ATP 20 μM; 45 minutes at room temperature. In kind it is biochemical. In short, it runs like this: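 Percent activity derived from ADP-Glo quantification of ADP produced. Reactions: compound dose-response with human recombinant GST-cleaved CSNK1D, ATP and substrate peptide PLSRTL-pS-VASLPGL, incubated 45 min at room temperature.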
A general note: ADP-Glo first removes unused ATP, then detects ADP through luciferase.

Another test deals with T2, human CSNK1D (Homo sapiens, UniProt P48730).
T2 construct: expressed in transfected cells
The test can be described thus: Whole Cell nBRET CSNK1D Binding Assay. The note with it: living CHO cells stably expressing human CSNK1D tagged with nanoluciferase; NanoBret tracer 130 nM; 2 hours at 37 C.

T1 sequence (P48730 whole entry): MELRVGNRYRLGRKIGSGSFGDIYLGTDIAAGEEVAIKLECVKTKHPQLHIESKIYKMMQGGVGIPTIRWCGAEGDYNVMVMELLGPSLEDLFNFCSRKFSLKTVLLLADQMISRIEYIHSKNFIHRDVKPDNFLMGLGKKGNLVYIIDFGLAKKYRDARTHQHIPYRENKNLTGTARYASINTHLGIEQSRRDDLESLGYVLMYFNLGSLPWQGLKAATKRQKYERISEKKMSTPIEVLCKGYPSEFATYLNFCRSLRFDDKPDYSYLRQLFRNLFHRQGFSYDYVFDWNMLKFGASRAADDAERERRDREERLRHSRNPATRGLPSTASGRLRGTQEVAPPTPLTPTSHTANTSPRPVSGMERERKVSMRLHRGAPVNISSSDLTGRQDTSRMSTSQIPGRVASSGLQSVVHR
T2 sequence (P48730 whole entry): as above

On to `Cc1n[nH]c2nccc(-c3c(-c4ccc(F)cn4)nn4c3COC(C)(C(F)(F)F)C4)c12` (single isomer, unassigned) [Example 419, (*S)-2-(5-Fluoropyridin-2-yl)-6-methyl-3-(3-methyl-1H-pyrazolo[3,4-b]pyridin-4-yl)-6-(trifluoromethyl)-6,7-dihydro-4H-pyrazolo[5,1-c][1,4]oxazine], for which the values for the IC50 (in test [1]; on human CSNK1D) were 235 nM and more than 10000 nM, respectively.
As for `Cc1nc2[nH]ncc2c(-c2c(-c3ccc(F)cn3)nn3c2CO[C@@](C)(C(F)(F)F)C3)c1F` (single isomer, unassigned) [Example 420, (*R)-3-(5-Fluoro-6-methyl-1H-pyrazolo[3,4-b]pyridin-4-yl)-2-(5-fluoropyridin-2-yl)-6-methyl-6-(trifluoromethyl)-6,7-dihydro-4H-pyrazolo[5,1-c][1,4]oxazine], the values for the half-inhibitory concentration (IC50) (in test [1]; at human CSNK1D) were 3 nM and 24 nM, respectively.
The matching figures for `Cc1nc2[nH]ncc2c(-c2c(-c3ccc(F)cn3)nn3c2CO[C@](C)(C(F)(F)F)C3)c1F` (single isomer, unassigned) [Example 421, (*S)-3-(5-Fluoro-6-methyl-1H-pyrazolo[3,4-b]pyridin-4-yl)-2-(5-fluoropyridin-2-yl)-6-methyl-6-(trifluoromethyl)-6,7-dihydro-4H-pyrazolo[5,1-c][1,4]oxazine]: 36 nM and 682 nM.
For `[2H]C([2H])([2H])[C@]1(C(F)(F)F)Cn2nc(-c3ccc(F)cn3)c(-c3ccnc4[nH]ncc34)c2CO1` (single isomer, unassigned) [Example 423, (*R)-2-(5-Fluoropyridin-2-yl)-6-(methyl-d3)-3-(1H-pyrazolo[3,4-b]pyridin-4-yl)-6-(trifluoromethyl)-6,7-dihydro-4H-pyrazolo[5,1-c][1,4]oxazine] the same measures were 67 nM and 1570 nM.
For `[2H]C([2H])([2H])[C@@]1(C(F)(F)F)Cn2nc(-c3ccc(F)cn3)c(-c3ccnc4[nH]ncc34)c2CO1` (single isomer, unassigned) [Example 424, (*S)-2-(5-Fluoropyridin-2-yl)-6-(methyl-d3)-3-(1H-pyrazolo[3,4-b]pyridin-4-yl)-6-(trifluoromethyl)-6,7-dihydro-4H-pyrazolo[5,1-c][1,4]oxazine] the same measures were 4 nM and 40 nM.
For the compound `[2H]C([2H])([2H])[C@]1(C(F)(F)F)Cn2nc(-c3ccc(F)cn3)c(-c3ccnc4[nH]nc(C)c34)c2CO1` (single isomer, unassigned) [Example 425, (*R)-2-(5-Fluoropyridin-2-yl)-6-(methyl-d3)-3-(3-methyl-1H-pyrazolo[3,4-b]pyridin-4-yl)-6-(trifluoromethyl)-6,7-dihydro-4H-pyrazolo[5,1-c][1,4]oxazine], the IC50 worked out at 235 nM in test [1] and 2260 nM on human CSNK1D.
The matching figures for `[2H]C([2H])([2H])[C@@]1(C(F)(F)F)Cn2nc(-c3ccc(F)cn3)c(-c3ccnc4[nH]nc(C)c34)c2CO1` (single isomer, unassigned) [Example 426, (*S)-2-(5-Fluoropyridin-2-yl)-6-(methyl-d3)-3-(3-methyl-1H-pyrazolo[3,4-b]pyridin-4-yl)-6-(trifluoromethyl)-6,7-dihydro-4H-pyrazolo[5,1-c][1,4]oxazine]: 17 nM and 87 nM.
For `[2H]C([2H])([2H])[C@@]1(C(F)(F)F)Cn2nc(-c3ccc(F)cn3)c(-c3ccnc4[nH]nc(Cl)c34)c2CO1` (single isomer, unassigned) [Example 427, (*S)-3-(3-Chloro-1H-pyrazolo[3,4-b]pyridin-4-yl)-2-(5-fluoropyridin-2-yl)-6-(methyl-d3)-6-(trifluoromethyl)-6,7-dihydro-4H-pyrazolo[5,1-c][1,4]oxazine] the same measures were 4 nM and 19 nM.
For `[2H]C([2H])([2H])[C@]1(C(F)(F)F)Cn2nc(-c3ccc(F)cn3)c(-c3cc(C)nc4[nH]nc(C)c34)c2CO1` (single isomer, unassigned) [Example 428, (*R)-3-(3,6-Dimethyl-1H-pyrazolo[3,4-b]pyridin-4-yl)-2-(5-fluoropyridin-2-yl)-6-(methyl-d3)-6-(trifluoromethyl)-6,7-dihydro-4H-pyrazolo[5,1-c][1,4]oxazine] the same measures were 9 nM and 76 nM.
For the compound `[2H]C([2H])([2H])[C@@]1(C(F)(F)F)Cn2nc(-c3ccc(F)cn3)c(-c3cc(C)nc4[nH]nc(C)c34)c2CO1` (single isomer, unassigned) [Example 429, (*S)-3-(3,6-Dimethyl-1H-pyrazolo[3,4-b]pyridin-4-yl)-2-(5-fluoropyridin-2-yl)-6-(methyl-d3)-6-(trifluoromethyl)-6,7-dihydro-4H-pyrazolo[5,1-c][1,4]oxazine], the IC50 in test [1] was found to be 133 nM; at human CSNK1D, 2230 nM.
For `[2H]C([2H])([2H])[C@]1(C(F)(F)F)Cn2nc(-c3ccc(F)cn3)c(-c3c(F)c(C)nc4[nH]nc(C)c34)c2CO1` (single isomer, unassigned) [Example 430, (*R)-3-(5-Fluoro-3,6-dimethyl-1H-pyrazolo[3,4-b]pyridin-4-yl)-2-(5-fluoropyridin-2-yl)-6-(methyl-d3)-6-(trifluoromethyl)-6,7-dihydro-4H-pyrazolo[5,1-c][1,4]oxazine] the same measures were 92 nM and 1190 nM.
For `[2H]C([2H])([2H])[C@@]1(C(F)(F)F)Cn2nc(-c3ccc(F)cn3)c(-c3c(F)c(C)nc4[nH]nc(C)c34)c2CO1` (single isomer, unassigned) [Example 431, (*S)-3-(5-Fluoro-3,6-dimethyl-1H-pyrazolo[3,4-b]pyridin-4-yl)-2-(5-fluoropyridin-2-yl)-6-(methyl-d3)-6-(trifluoromethyl)-6,7-dihydro-4H-pyrazolo[5,1-c][1,4]oxazine] the same measures were 1580 nM and more than 10000 nM.
For `Fc1ccc(-c2nn3c(c2-c2ccnc4[nH]ncc24)COC2(C3)CC2(F)F)nc1` (single isomer, unassigned) [Example 433, (*R)-1′. 1′-Difluoro-2-(5-fluoro-2-pyridyl)-3-(1H-pyrazolo[3,4-b]pyridin-4-yl)spiro[4,7-dihydropyrazolo[5,1-c][1,4]oxazine-6,2′-cyclopropane]] the same measures were 4 nM and 79 nM.
For the compound `Fc1ccc(-c2nn3c(c2-c2ccnc4[nH]ncc24)COC2(C3)CC2(F)F)nc1` (single isomer, unassigned) [Example 434, (*S)-1′. 1′-Difluoro-2-(5-fluoro-2-pyridyl)-3-(1H-pyrazolo[3,4-b]pyridin-4-yl)spiro[4,7-dihydropyrazolo[5,1-c][1,4]oxazine-6,2′-cyclopropane]], the half-inhibitory concentration (IC50) in test [1] turned out to be 165 nM; on human CSNK1D, 8290 nM.
The matching figures for `Fc1ccc(-c2nn3c(c2-c2c(F)cnc4[nH]ncc24)COC2(C3)CC2(F)F)nc1` (single isomer, unassigned) [Example 435, (*R)-1′. 1′-Difluoro-3-(5-fluoro-1H-pyrazolo[3,4-b]pyridin-4-yl)-2-(5-fluoro-2-pyridyl)spiro[4,7-dihydropyrazolo[5,1-c][1,4]oxazine-6,2′-cyclopropane]]: 5 nM and 49 nM.
In the case of `Fc1ccc(-c2nn3c(c2-c2c(F)cnc4[nH]ncc24)COC2(C3)CC2(F)F)nc1` (single isomer, unassigned) [Example 436, (*S)-1′1l′-Difluoro-3-(5-fluoro-1H-pyrazolo[3,4-b]pyridin-4-yl)-2-(5-fluoro-2-pyridyl)spiro[4,7-dihydropyrazolo[5,1-c][1,4]oxazine-6,2′-cyclopropane]], the figures for the IC50 (in test [1]; at human CSNK1D) were 156 nM and 3960 nM, respectively.
The matching figures for `C[C@@H]1n2nc(-c3ccc(F)cn3)c(-c3ccnc4[nH]nc(Cl)c34)c2COC1(C)C` (single isomer, unassigned) [Example 437, (*S)-3-(3-Chloro-1H-pyrazolo[3,4-b]pyridin-4-yl)-2-(5-fluoropyridin-2-yl)-6,6,7-trimethyl-6,7-dihydro-4H-pyrazolo[5,1-c][1,4]oxazine]: 5 nM and 46 nM.
Regarding `Cc1n[nH]c2nccc(-c3c(-c4ccc(F)cc4)nn4c3OCC3(C4)CC3(F)F)c12` (single isomer, unassigned) [Example 472, (*S)-2,2-Difluoro-2′-(4-fluorophenyl)-3′-(3-methyl-1H-pyrazolo[3,4-b]pyridin-4-yl)-5′H,7′H-spiro[cyclopropane-1,6′-pyrazolo[5,1-b][1,3]oxazine]], the IC50 in test [1] is 69 nM; at human CSNK1D it was 597 nM.
The matching figures for `Cc1n[nH]c2nccc(-c3c(-c4ccc(F)cc4)nn4c3OCC3(C4)CC3(F)F)c12` (single isomer, unassigned) [Example 473, (*R)-2,2-Difluoro-2′-(4-fluorophenyl)-3′-(3-methyl-1H-pyrazolo[3,4-b]pyridin-4-yl)-5′H,7′H-spiro[cyclopropane-1,6′-pyrazolo[5,1-b][1,3]oxazine]]: 2 nM and 6 nM.
Regarding `Cc1cc(-c2c(-c3ccc(F)cc3)nn3c2OCC2(C3)CC2(F)F)c2cn[nH]c2n1` (single isomer, unassigned) [Example 474, *S-2,2-Difluoro-2′-(4-fluorophenyl)-3′-6-methyl-1H-pyrazolo[3,4-b]pyridin-4-yl)-5′H,7′H-spiro[cyclopropane-1,6′-pyrazolo[5,1-b][1,3]oxazine]], the IC50 was 1 nM in test [1] and 2 nM on human CSNK1D.
The matching figures for `Cc1cc(-c2c(-c3ccc(F)cc3)nn3c2OCC2(C3)CC2(F)F)c2cn[nH]c2n1` (single isomer, unassigned) [Example 475, (*R)-2,2-Difluoro-2′-(4-fluorophenyl)-3′-(6-methyl-1H-pyrazolo[3,4-b]pyridin-4-yl)-5′H,7′H-spiro[cyclopropane-1,6′-pyrazolo[5,1-b][1,3]oxazine]]: 6 nM and 36 nM.
